Laboratory results published in US10487113B2, “Peptide having activity to improve skin condition and use thereof” (CAREGEN CO., LTD., priority 2014, dated 2019).

Tests used:
[1] = test system: Human primary dermal fibroblast cells; experiment: Human primary dermal fibroblast cell proliferation, SRB assay; assay type: cell-based; conditions: 1 ng/ml to 1 ug/ml, 72 hours, SRB assay OD 590 nm
Experimental: Human primary dermal fibroblast cells were treated with CG-Renuin (peptide of SEQ ID NO: 1) and CG-Noverin (peptide of SEQ ID NO: 2) at different concentrations (1 ng/ml to 1 ug/ml), and the cells were incubated for 72 hours in a cell incubator. Then, the cell proliferation change by the peptide treatment was analyzed through SRB assay (OD 590 nm).

[2] = test system: NIH3T3 cells; experiment: Western blotting of pERK and p38 in UVA-irradiated cells; assay type: cell-based; conditions: 1-10 ug/ml, 30 minutes, then UVA (8 J), 24 hours
Experimental: NIH3T3 cells ([…]) were seeded in a 6-well plate at a cell density of 2×10^5 cells/well, followed by incubation overnight, and then the cells were treated with CG-Renuin or CG-Noverin peptides at different concentrations (1-10 ug/ml), followed by incubation at 37 °C for 30 minutes. Then, the cells were irradiated with UVA (8 J), followed by incubation for 24 hours. The lysates were obtained by the treatment with the cell lysis buffer, followed by protein quantification. For the confirmation of the expression of cellular activating factors, western blotting was conducted using the anti-pERK (Santa Cruz Biotechnology, USA) and p38 (Santa Cruz Biotechnology, USA) antibodies.

[3] = biological target: T1, MMP2 (Homo sapiens, UniProt P08253); experiment: rhMMP2 inhibition by gelatin zymography; assay type: biochemical; conditions: rhMMP2 mixed with peptide 0.1 ug/ml and 1 ug/ml, room temperature, 1 hour
T1 sequence (P08253 110-660): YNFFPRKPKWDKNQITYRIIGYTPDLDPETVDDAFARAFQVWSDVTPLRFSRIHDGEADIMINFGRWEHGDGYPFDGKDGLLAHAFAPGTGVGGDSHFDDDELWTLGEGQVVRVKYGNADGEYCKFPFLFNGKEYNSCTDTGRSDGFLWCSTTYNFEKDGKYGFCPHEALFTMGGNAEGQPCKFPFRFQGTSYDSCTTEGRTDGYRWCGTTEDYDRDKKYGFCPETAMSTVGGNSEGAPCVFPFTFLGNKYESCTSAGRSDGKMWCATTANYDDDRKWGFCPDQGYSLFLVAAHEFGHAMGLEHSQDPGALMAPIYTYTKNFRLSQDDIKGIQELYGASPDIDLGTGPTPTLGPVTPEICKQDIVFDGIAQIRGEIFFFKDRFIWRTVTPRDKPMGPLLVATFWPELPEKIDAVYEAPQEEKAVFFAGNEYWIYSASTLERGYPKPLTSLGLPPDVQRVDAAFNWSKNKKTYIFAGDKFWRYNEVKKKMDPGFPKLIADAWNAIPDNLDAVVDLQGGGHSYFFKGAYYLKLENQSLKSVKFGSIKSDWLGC
Experimental: (§1) After rhMMP2 was mixed with the peptides at different concentrations (0.1 ug/ml and 1 ug/ml), the incubation was conducted at room temperature for 1 hour. Then, in order to investigate the expression of rhMMP2 through gelatin zymography, protein electrophoresis (SDS-PAGE) was conducted using gelatin (2 mg/ml) as a substrate. After the electrophoresis, the gel was immersed in 2.5% Triton X-100 for 30 minutes, and then incubated in a buffer containing 50 mM Tris-HCl, 0.2 M NaCl, 5 mM CaCl2), and 1% Triton X-100 at 37 °C for 24 hours. After the incubation, the gel was stained with Coo-massie Brilliant Blue R250 (Sigma), and de-stained with a solution containing 5% methanol, 7.5% acetic acid, and distilled water. In addition, the bands formed by gelatin hydrolysis were observed.

[4] = biological target: T2, MMP2 (Mus musculus, UniProt P33434); experiment: MMP2 activity in TNF-α-induced fibroblast cells (NIH3T3), gelatin zymography; assay type: cell-based; conditions: NIH3T3, MMP2 induced by TNF-α; 10, 100, 1000 ng/ml, 24 hours
T2 construct: endogenous in cells; host or cells: NIH3T3
Experimental: as §1, with “Fibroblast cells (NIH3T3) were seeded in a 24-well plate at a cell density of 3×10^4 cells/well. The next day, the cells were incubated in serum-less medium for 24 hours, and the expression and activation of MMP2 were induced by TNF-α. The cells were treated” for “After rhMMP2 was mixed”, “CG-Renuin or CG-Noverin” for “the peptides”, “(10 ng/ml, 100 ng/ml, 1000 ng/ml), followed by incubation for 24 hours. The supernatant obtained from centrifugation at 14,000×g for 10 minutes was incubated,” for “(0.1 ug/ml”, “then,” for “1 ug/ml), the incubation was conducted at room temperature for 1 hour. Then,”, “MMP2” for “rhMMP2”

[5] = test system: HaCaT keratinocytes; experiment: Melanosome transfer: phagocytosis assay with fluorescent bioparticles; assay type: cell-based; conditions: trypsin 1 μg/ml induction, peptide 1 μg/ml, 48 hours; trypsin treatment group considered 100%
Experimental: In order to observe melanosome transfer, phagocytosis assay was conducted using HaCaT keratinocytes. Bioparticles with a fluorescence substance attached thereto were used as a substance for phagocytosis. The cells were seeded in a 96-well tissue culture plate at 3×10^3 cells/well, incubated for 24 hours, and then incubated in a serum-free medium for 6 hours. Thereafter, for the induction of phagocytosis, the cells were treated with 1 μg/ml of trypsin, and then the cells were treated with 1 μg/ml of peptides for 48 hours. As a result, it was confirmed through a fluorescent microscope that the bioparticles were phagocytized into keratocytes. From the observation when the data with respect to a phagocytosis induction group, that is, a trypsin treatment group, were considered to be 100%, it was verified that phagocytosis was inhibited in the CG-Noverin treatment group and the CG-Renuin treatment group.

[6] = biological target: T1, MMP2; experiment: Inhibition of MMP2-induced collagen degradation in human dermal fibroblast (HDF) cells, pro-collagen type I kit; assay type: cell-based; set-up: purchased SIGMA/USA; host or cells: added to human dermal fibroblast (HDF) cells; conditions: MMP2 20 ng/ml co-treatment, 6 hours, or after IGF-1 100 ng/ml, 4 hours, pro-collagen type I in supernatant
Experimental: Human dermal fibroblast (HDF) cells (3×10^4) were seeded in a 24-well plate. The next day, the cells were incubated in 5% serum medium for 42 hours, treated with MMP2 (20 ng/ml, SIGMA/USA) and CG-Noverin or CG-Renuin, respectively, and incubated for 6 hours. The supernatant obtained from centrifugation at 14,000×g for 10 minutes was analyzed using the pro-collagen type I kit (RnD system/USA).
Human dermal fibroblast (HDF) cells (3×10^4) were seeded in a 24-well plate, and then the next day, the medium was exchanged with a 5% serum medium. The cells were treated with IGF-1 (100 ng/ml, Sigma/USA), followed by incubation for 44 hours, and then the cells were treated with MMP2 (20 ng/ml) and CG-Noverin or CG-Renuin, respectively, followed by incubation for 4 hours. The supernatant obtained from centrifugation at 14,000×g for 10 minutes was analyzed using the pro-collagen type I kit.

T2 sequence (P33434 110-662): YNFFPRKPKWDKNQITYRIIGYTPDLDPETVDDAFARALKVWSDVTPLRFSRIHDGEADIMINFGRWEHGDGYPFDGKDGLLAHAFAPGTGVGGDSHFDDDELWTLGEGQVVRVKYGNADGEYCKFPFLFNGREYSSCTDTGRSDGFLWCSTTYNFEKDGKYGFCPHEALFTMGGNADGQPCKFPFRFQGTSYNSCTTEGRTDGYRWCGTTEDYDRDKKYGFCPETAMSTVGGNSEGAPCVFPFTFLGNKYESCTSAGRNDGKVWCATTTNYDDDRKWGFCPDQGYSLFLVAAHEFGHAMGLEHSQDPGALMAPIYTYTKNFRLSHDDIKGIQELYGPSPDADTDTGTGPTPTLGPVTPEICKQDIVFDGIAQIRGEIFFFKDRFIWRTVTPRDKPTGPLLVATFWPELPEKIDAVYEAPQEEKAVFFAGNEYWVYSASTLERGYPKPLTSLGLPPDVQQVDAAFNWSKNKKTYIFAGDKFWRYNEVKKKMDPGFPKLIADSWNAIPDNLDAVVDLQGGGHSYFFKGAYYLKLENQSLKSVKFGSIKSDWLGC

Substance: NH2-Cys-Pro-Arg-His-Phe-Asn-Pro-Val-Cys-COOH (H-CPRHFNPVC-OH; cysteine pairing not given here) [CG-Noverin]
- proliferation of human primary dermal fibroblast cells [1]: increased depending on the treatment amount
- phosphorylation of ERK [2]: increased
- phosphorylation of P38 [2]: increased
- MMP2 activity (gelatin zymography) [3]: directly inhibited
- MMP2 activity in fibroblast cells [4]: inhibited
- phagocytosis (melanosome transfer) [5]: inhibited
- collagen degradation induced by MMP2 [6]: inhibited the induction of collagen degradation

Substance: NH2-Cys-Thr-Lys-Ile-Tyr-Asp-Pro-Val-Cys-COOH (H-CTKIYDPVC-OH; cysteine pairing not given here) [CG-Renuin]
- proliferation of human primary dermal fibroblast cells [1]: increased depending on the treatment amount
- phosphorylation of ERK [2]: increased
- phosphorylation of P38 [2]: increased
- MMP2 activity (gelatin zymography) [3]: directly inhibited
- MMP2 activity in fibroblast cells [4]: inhibited
- phagocytosis (melanosome transfer) [5]: inhibited
- collagen degradation induced by MMP2 [6]: inhibited the induction of collagen degradation
